Drawing on BindingDB's records for patent US20240018151 (Tme Therapeutics, 2024), this text covers IC50 for 1 compound.

The target of the assay is 1-phosphatidylinositol 3-phosphate 5-kinase (Homo sapiens, UniProt Q9Y2I7). Kind of assay: ADP-GLO Kinase Assay. The protocol:
Briefly, 4 compound solution and 4 ATP solution are prepared with assay buffer (50 mM MOPS, 1 mM DTT, pH7.2). 4 Substrate solution and 4 kinase/Metal solution are prepared with MOPS based buffer containing individual kinase specific additives. Then, […], 5 μL of 4 Substrate solution, 5 μL of 4 ATP solution, and 5 μL of 4 kinase/Metal solution are mixed and incubated in a well of polystyrene 384 well black microplate for 1 hour at room temperature. Next, 20 μL of ADP-Glo Reagent (Promega) is added to the well,and incubated for over 40 minutes. 40 μL of Kinase Detection Reagent (Promega) is added to the well, and incubated for over 40 minutes. The kinase reaction is evaluated by the endpoint luminescence of the well. For measurement of PIKFYVE activity, the substrate is PI3P at 10,000 nM concentration, using AG-182 as a positive control. The metal used is magnesium at 5 mM concentration.
Background: In ADP-Glo the light output rises with the ADP produced.

Sequence of 1-phosphatidylinositol 3-phosphate 5-kinase (Q9Y2I7 whole entry): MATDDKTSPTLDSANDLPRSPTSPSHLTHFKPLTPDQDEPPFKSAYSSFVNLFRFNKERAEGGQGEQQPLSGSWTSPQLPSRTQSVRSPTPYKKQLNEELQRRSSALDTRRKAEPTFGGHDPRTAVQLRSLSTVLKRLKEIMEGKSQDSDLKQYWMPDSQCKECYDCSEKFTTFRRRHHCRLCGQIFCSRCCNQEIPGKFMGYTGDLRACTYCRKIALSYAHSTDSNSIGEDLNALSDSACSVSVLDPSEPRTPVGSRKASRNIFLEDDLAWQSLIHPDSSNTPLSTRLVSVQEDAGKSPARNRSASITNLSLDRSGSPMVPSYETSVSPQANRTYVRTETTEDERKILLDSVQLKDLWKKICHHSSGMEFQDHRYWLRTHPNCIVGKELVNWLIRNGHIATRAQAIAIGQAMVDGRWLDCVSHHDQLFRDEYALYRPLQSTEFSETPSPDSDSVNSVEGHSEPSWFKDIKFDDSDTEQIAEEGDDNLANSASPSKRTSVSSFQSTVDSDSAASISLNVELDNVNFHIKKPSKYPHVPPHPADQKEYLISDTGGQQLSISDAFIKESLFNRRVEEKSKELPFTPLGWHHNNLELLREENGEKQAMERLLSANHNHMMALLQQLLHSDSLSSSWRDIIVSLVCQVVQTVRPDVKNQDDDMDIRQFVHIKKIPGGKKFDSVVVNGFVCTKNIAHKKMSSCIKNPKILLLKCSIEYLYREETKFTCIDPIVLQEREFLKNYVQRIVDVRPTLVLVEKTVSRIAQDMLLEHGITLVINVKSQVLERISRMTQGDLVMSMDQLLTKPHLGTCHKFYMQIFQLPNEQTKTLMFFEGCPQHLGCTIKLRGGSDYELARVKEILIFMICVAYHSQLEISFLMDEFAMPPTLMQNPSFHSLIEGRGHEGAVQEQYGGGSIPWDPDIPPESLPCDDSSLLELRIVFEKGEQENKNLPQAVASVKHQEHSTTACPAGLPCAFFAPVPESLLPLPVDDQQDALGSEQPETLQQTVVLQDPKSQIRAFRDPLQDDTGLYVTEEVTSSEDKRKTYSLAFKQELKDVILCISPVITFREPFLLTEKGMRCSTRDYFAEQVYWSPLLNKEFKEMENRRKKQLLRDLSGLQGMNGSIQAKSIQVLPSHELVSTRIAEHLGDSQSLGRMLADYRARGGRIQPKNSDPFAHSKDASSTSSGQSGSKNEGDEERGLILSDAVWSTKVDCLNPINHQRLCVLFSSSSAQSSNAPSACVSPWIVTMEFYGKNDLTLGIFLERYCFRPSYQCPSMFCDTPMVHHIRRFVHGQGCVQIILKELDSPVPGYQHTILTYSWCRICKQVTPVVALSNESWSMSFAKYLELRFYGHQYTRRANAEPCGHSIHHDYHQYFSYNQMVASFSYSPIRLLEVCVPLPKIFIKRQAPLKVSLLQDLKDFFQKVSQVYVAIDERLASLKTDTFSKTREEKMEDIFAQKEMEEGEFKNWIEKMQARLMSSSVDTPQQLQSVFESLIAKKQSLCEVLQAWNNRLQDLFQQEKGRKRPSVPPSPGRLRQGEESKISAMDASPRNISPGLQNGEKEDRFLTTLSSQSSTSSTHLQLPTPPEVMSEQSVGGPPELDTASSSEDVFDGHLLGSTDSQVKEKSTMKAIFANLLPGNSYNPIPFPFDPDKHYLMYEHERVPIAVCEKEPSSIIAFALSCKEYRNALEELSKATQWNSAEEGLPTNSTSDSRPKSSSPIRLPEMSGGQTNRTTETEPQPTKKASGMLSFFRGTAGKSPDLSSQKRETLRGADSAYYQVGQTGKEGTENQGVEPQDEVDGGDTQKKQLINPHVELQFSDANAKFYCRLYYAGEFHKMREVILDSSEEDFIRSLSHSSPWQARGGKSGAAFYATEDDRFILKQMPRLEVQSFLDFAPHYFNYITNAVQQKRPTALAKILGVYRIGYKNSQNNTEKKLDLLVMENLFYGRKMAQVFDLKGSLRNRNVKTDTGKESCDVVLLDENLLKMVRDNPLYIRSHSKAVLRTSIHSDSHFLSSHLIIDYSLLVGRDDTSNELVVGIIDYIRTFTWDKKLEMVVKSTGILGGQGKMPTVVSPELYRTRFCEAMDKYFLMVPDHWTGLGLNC

As usually defined, the IC50 is the concentration that inhibits the measured activity by half. `Brc1cccc(-c2ccn(-c3cc(N4CCOCC4)n4nc(-c5ccncc5)cc4n3)n2)c1` [US20240018151, Example 3] displayed a concentration for half-maximal inhibition (IC50) below 50 nM.
